From US20130136693A1, “Crystal Forms of 2--Adenosine” (King Pharmaceuticals Research and Development, Inc, priority 2008, published 2013)

Experiments:
Format in all cases: physicochemical
[1] = moisture sorption analysis; details: relative humidity of about 94%, 14 days, 25° C.
[2] = solubility studies in EtOH
Procedure: In the current set of results, Form I crystals readily transforms into Form II crystals in EtOAc at 60° C. for 4 h (experiment No. 7). […] Thus, Form I appears to convert to Form II, but really converts to Form II hydrate. […] Thus, in the presence of residual water, Form II is obtained in the isostructural hydrate form, whereas in a completely anhydrous system, Form I results.

[3] = drying of crystals, crystal form checked by XRPD
Procedure: Furthermore, TGA and ^1H-NMR indicate that Form I crystals may also contain approximately 4 wt-% of ethanol (FIG. 1A).
In accordance with the TG data, after a few minutes at 125° C. in the KF oven, most of the weight loss from ethanol and water is complete affording Form I crystals in an anhydrous form (FIG. 1B). […] A comparison of the calorimetric behavior of the anhydrous Form I crystals and the Form I crystals containing residual solvents (“undried”) is summarized in Table 1:
Form II crystal form may be obtained in a hydrated form or in an anhydrous form. For example, slow crystallization from lower alcohols such as MeOH and EtOH in the presence of residual water provides hydrated Form II crystals.

[4] = non-competitive slurry experiments (XRPD of remaining solids); details: for Final Form (XRPD): 4 h
Procedure: In an alternative aspect of the present invention, solid forms of binodenoson may be suspended in a suitable solvent at a temperature of at least 10° C., preferably at a temperature ranging from about 25° C. to about 60° C. Under suitable conditions, a suspension/slurry results in which particles of solid are dispersed, and remain incompletely dissolved in the solvent. Preferably, the solids are maintained in a state of suspension by agitation, e.g., by shaking or stirring. The suspension/slurry is then kept at a temperature of 10° C. or higher, e.g., at a temperature ranging from about 25° C. to about 60° C., for a time sufficient to effect transformation of the starting solids into product crystals. The product crystals may then be isolated and dried using conventional methods in the art. In the presence of water, all crystal forms of binodenoson will convert to Form II hydrate.
Noncompetitive slurry experiments are useful for identifying solvent mediated conditions useful for converting one crystalline form to another. In these experiments, excess material of a single crystal form is mixed with a solvent under isothermal conditions. These experiments rely on differences in solubility of the different polymorphic forms. […] Essentially, when a polymorph is suspended in a suitable solvent, a saturated solution phase (eventually) results. The solution phase is saturated with respect to the polymorphic form dissolved.
The results of these experiments often depend on nucleation kinetics and the presence of impurities that may inhibit nuclei growth of other stable crystalline modifications.
(§1) In general, slurry experiments are performed by agitating approximately 0.01 g to 2.5 g of material in 0.5 mL to 50 mL of slurry solvent. Uniform agitation and temperature control are accomplished using, e.g., Reacti-Therm heating modules and small Teflon coated stir bars. The duration of the slurry experiments is often around 24 h (although in some cases the experiments may be continued for several weeks). At the end of the slurry experiment, remaining undissolved solids are collected by vacuum filtration. To avoid inducing any type of physical change, the solids are not subjected to additional drying before the XRPD analysis.

[5] = competitive slurry experiments (XRPD of remaining solids); details: 25 °C, 24 h
Procedure: Two different types of slurry experiments may be performed, i.e., competitive and noncompetitive slurry experiments. Competitive slurry experiments are performed by mixing excess amounts of non-solvated polymorphic forms together in different solvents and agitating the mixture isothermally. These types of slurry experiments may be used to determine which form is more thermodynamically stable (under the conditions tested).
When competitive slurry experiments are performed, the nucleation step is generally bypassed. Because the two (or more) forms placed into contact with the solvent have different solubilities, particles of the form with the lower solubility grow at the expense of the more soluble form. This occurs since the more soluble form is saturated, and the less soluble form is supersaturated.
as §1
In addition to the pure solvent noncompetitive slurry experiments performed, three competitive slurry experiments in Table 8 are performed at room temperature. These slurry experiments are composed of an approximately 50/50 mixture of Form I and Form II solids. Three different solvents are used to perform the competitive slurry experiments: DCM, i-PrOAc and EtOAc.

For `Nc1nc(NN=CC2CCCCC2)nc2c1ncn2[C@@H]1O[C@H](CO)[C@@H](O)[C@H]1O` [anhydrous Form I, 2-{2-[(cyclohexyl)methylene]-hydrazino}adenosine], the “crystal form after moisture sorption analysis” value [1] was “remains the same” and the “weight gain in moisture sorption analysis” value [1] was “approximately 1.3%”.

In the case of `Nc1nc(NN=CC2CCCCC2)nc2c1ncn2[C@@H]1O[C@H](CO)[C@@H](O)[C@H]1O` [Form II, 2-{2-[(cyclohexyl)methylene]-hydrazino}adenosine], the “solubility compared with Form I” value ([2]; anhydrous Forms I and II compared in EtOH) is reported as “much higher solubility” and the “behaviour during solubility studies” value ([2]; dry EtOH) is reported as “completely dissolve and recrystallize as Form I”.

With `Nc1nc(NN=CC2CCCCC2)nc2c1ncn2[C@@H]1O[C@H](CO)[C@@H](O)[C@H]1O` [Form II hydrate, 2-{2-[(cyclohexyl)methylene]-hydrazino}adenosine] the “change of XRPD pattern upon drying” value ([3]; drying the hydrated crystals) was “does not change the XRPD pattern” and the “solubility of the isostructural hydrate” value ([2]; presence of residual water, deduced) was “lower solubility than that of Form I”.

For `Nc1nc(NN=CC2CCCCC2)nc2c1ncn2[C@@H]1O[C@H](CO)[C@@H](O)[C@H]1O` [Form I, 2-{2-[(cyclohexyl)methylene]-hydrazino}adenosine], the “change of crystalline form upon drying (XRPD)” value ([3]; drying under nitrogen, 125° C. in the KF oven) was “does not change significantly”, the “thermodynamic stability relative to Form II” value ([2]; when water is not present, from solubilities) was “thermodynamically more stable than Form II” and the hygroscopicity [1] was “non-hygroscopic”. The “Final Form (XRPD)” value ([4]; experiment No. 1: EtOAc, 40 °C) was “amorphous”, the “Final Form (XRPD)” value ([4]; experiment No. 2: EtOH, 40 °C) was “all dissolved” and the “Final Form (XRPD)” value ([4]; experiment No. 4: i-Pr2O, 40 °C) was “amorphous”. For the same compound, the “Final Form (XRPD)” value ([4]; experiment No. 5: MeOH, 40 °C) was “all dissolved” and the “Final Form (XRPD)” value ([4]; experiment No. 7: EtOAc, 60 °C) was “II^b”.

For `Nc1nc(NN=CC2CCCCC2)nc2c1ncn2[C@@H]1O[C@H](CO)[C@@H](O)[C@H]1O` [Form V, 2-{2-[(cyclohexyl)methylene]-hydrazino}adenosine], the “stability relative to Form I” value ([4]; at 40° C., from experiment No. 6 (DCM slurry)) was “more stable than Form I”.

For `Nc1nc(NN=CC2CCCCC2)nc2c1ncn2[C@@H]1O[C@H](CO)C(O)C1O` (stereo partly drawn) [Form I & II, 2-{2-[(cyclohexyl)methylene]-hydrazino}adenosine], the “Final Form (XRPD)” value ([5]; experiment No. 11: DCM) was “II^b”, the “Final Form (XRPD)” value ([5]; experiment No. 12: i-PrOAc) was “II^b” and the “Final Form (XRPD)” value ([5]; experiment No. 13: EtOAc) was “II^b”.
